From patent publication US6376497B1, “Antifungal azole derivatives having a fluorinated vinyl group and process for preparing same” (Korea Research Institute of Chemical Technology, priority 1999, dated 2002)

How the values were obtained:
Test in all cases: In vitro antifungal activity, microbroth dilution MIC
Type in all cases: cell-based
[1] = test system: Trichophyton mentagrophytes B. 32663; conditions: RPMI-1640, 35° C., 4 to 48 hours, no growth observed
In short: (§1)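 Broth microdilution adapted from NCCLS M27, in RPMI-1640 with 0.165 M MOPS, pH 7.0. Yeast or mould inoculum at 2×10^3 CFU/ml was mixed 1:1 with DMSO-derived compound solutions (200 to 0.10 μg/ml before mixing) and incubated at 35 °C for 4 to 48 h. MIC was the concentration showing no growth.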

Candida krusei K. 11655 = conditions: RPMI-1640, 35° C., 4 to 48 hours, no growth observed
In short: as §1

Candida albicans C1-2 = conditions: C. albicans C1-2, RPMI-1640, 35° C., 4 to 48 hours
In short: as §1

[2] = test system: Aspergillus furnigatus B. 19119; conditions: RPMI-1640, 35° C., 4 to 48 hours, no growth observed
In short: as §1

[3] = test system: Cryptococcus neoformans A. 34144; conditions: RPMI-1640, 35° C., 4 to 48 hours, no growth observed
In short: as §1

[4] = test system: Cryptococcus neoformans IFM. 40092; conditions: RPMI-1640, 35° C., 4 to 48 hours, no growth observed
In short: as §1

[5] = test system: Trichophyton mentagrophytes A. 9129; conditions: RPMI-1640, 35° C., 4 to 48 hours, no growth observed
In short: as §1

[6] = test system: Candida pseudotropicalis K. 11658; conditions: RPMI-1640, 35° C., 4 to 48 hours, no growth observed
In short: as §1

[7] = test system: Aspergillus niger A. 16404; conditions: RPMI-1640, 35° C., 4 to 48 hours, no growth observed
In short: as §1

[8] = test system: Torulopsis glabrata B. 16205; conditions: RPMI-1640, 35° C., 4 to 48 hours, no growth observed
In short: as §1

[9] = test system: Cryptococcus neoformans B. 42419; conditions: RPMI-1640, 35° C., 4 to 48 hours, no growth observed
In short: as §1

[10] = test system: Candida albicans IFO. 1385; conditions: RPMI-1640, 35° C., 4 to 48 hours, no growth observed
In short: as §1

[11] = test system: Candida albicans A. 10231; conditions: C. albicans A. 10231, RPMI-1640, 35° C., 4 to 48 hours
In short: as §1

[12] = test system: Candida tropicalis A. 13803; conditions: RPMI-1640, 35° C., 4 to 48 hours, no growth observed
In short: as §1

[13] = test system: Candida parapsitosis A. 7330; conditions: RPMI-1640, 35° C., 4 to 48 hours, no growth observed
In short: as §1

Compound | Minimal inhibitory concentration(MIC), T. mentagrophytes B. 32663 [1] [µg/mL] | Minimal inhibitory concentration(MIC), C. krusei K. 11655 (Candida krusei K. 11655) [µg/mL] | Minimal inhibitory concentration (MIC) (Candida albicans C1-2) [µg/mL] | Minimal inhibitory concentration(MIC), A furnigatus B. 19119 [2] [µg/mL] | Minimal inhibitory concentration(MIC), Cry. neoformans A. 34144 [3] [µg/mL] | Minimal inhibitory concentration(MIC), Cry. neoformans IFM. 40092 [4] [µg/mL] | Minimal inhibitory concentration(MIC), T. mentagrophytes A. 9129 [5] [µg/mL] | Minimal inhibitory concentration(MIC), C. pseudotropicalis K. 11658 [6] [µg/mL] | Minimal inhibitory concentration(MIC), A. niger A. 16404 [7] [µg/mL] | Minimal inhibitory concentration(MIC), T. glabrata B. 16205 [8] [µg/mL] | Minimal inhibitory concentration(MIC), Cry. neoformans B. 42419 [9] [µg/mL] | Minimal inhibitory concentration(MIC), C. albicans IFO. 1385 [10] [µg/mL] | Minimal inhibitory concentration (MIC) [11] [µg/mL] | Minimal inhibitory concentration(MIC), C. tropicalis A. 13803 [12] [µg/mL] | Minimal inhibitory concentration(MIC), C. parapsitosis A. 7330 [13] [µg/mL]
COc1ccc(C=C(F)OCC2COC(Cn3cncn3)(c3ccc(Cl)cc3Cl)O2)cc1 (mixture of isomers) [Ex. 74] | 12.5 | 100 | 100 | >100 | 6.25 | 0.78 | 12.5 | 25.0 | >100 | 50.0 | 3.13 | 12.5 | 100 | >100 | >100
FC(=Cc1ccc2c(c1)OCO2)OCC1COC(Cn2cncn2)(c2ccc(Cl)cc2Cl)O1 (mixture of isomers) [Ex. 75] | 3.13 | 100 | 100 | 100 | 1.56 | 0.39 | 3.13 | 25.0 | >100 | 50.0 | 1.56 | 25.0 | 100 | 100 | >100
FC(=Cc1ccc(Cl)cc1)OCC1COC(Cn2cncn2)(c2ccc(Cl)cc2Cl)O1 (mixture of isomers) [Ex. 76] | 3.13 | >100 | 6.25 | 25.0 | 3.13 | 0.78 | 3.13 | 100 | 12.5 | 25.0 | 3.13 | 6.25 | 6.25 | 25.0 | >100
FC(=Cc1ccc(F)cc1)OCC1COC(Cn2cncn2)(c2ccc(Cl)cc2Cl)O1 (mixture of isomers) [Ex. 77] | 6.25 | 12.5 | 100 | 100 | 3.13 | 0.78 | 6.25 | 6.25 | >100 | 50.0 | 1.56 | 25.0 | 100 | 100 | 12.5
FC(OCC1COC(Cn2cncn2)(c2ccc(Cl)cc2Cl)O1)=C(c1ccccc1)C(F)(F)F (mixture of isomers) [Ex. 79] | >100 | >100 | >100 | >100 | >100 | 1.56 | >100 | >100 | >100 | >100 | >100 | >100 | >100 | >100 | >100
Cc1cccc(C(=C(F)OCC2COC(Cn3cncn3)(c3ccc(Cl)cc3Cl)O2)C(F)(F)F)c1 (mixture of isomers) [Ex. 80] | 100 | >100 | >100 | >100 | 1.56 | 0.78 | 100 | >100 | >100 | >100 | 1.56 | 12.5 | >100 | >100 | >100
